According to ChEMBL document CHEMBL1134869, “Discovery of potent, selective human granzyme B inhibitors that inhibit CTL mediated apoptosis” (Bioorg Med Chem Lett, 2002):
Residues, ends and D or L forms follow the SMILES beside them.

Legend:
Granzyme B [1] = molecular target: T1, Granzyme B (Homo sapiens, UniProt P10144); assay: Inhibition against human granzyme B
[2] = Inhibition of CTL mediated apoptosis using humanNK-92 natural killer cells acting on target K-562 cells whose DNA had previously been labeled with [125I]-iododeoxyuridine; type: cell-based, Homo sapiens; settings: k562
Granzyme B [3] = molecular target: T1, Granzyme B; assay: Compound was tested for its inhibition against human granzyme B; Not active
Caspase-3 (Homo sapiens) = molecular target: T2, Caspase-3 (Homo sapiens) (UniProt P42574); assay: Compound was tested for its inhibition against Caspase-3 at 50 uM; Not active
T2 sequence (whole entry): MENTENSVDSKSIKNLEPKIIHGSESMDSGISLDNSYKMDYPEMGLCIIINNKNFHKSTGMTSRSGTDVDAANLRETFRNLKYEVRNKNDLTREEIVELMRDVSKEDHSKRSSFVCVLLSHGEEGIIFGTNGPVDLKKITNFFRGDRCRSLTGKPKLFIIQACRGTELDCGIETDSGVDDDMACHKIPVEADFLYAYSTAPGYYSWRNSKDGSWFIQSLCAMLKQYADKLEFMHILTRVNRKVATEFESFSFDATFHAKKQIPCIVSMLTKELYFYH

T1 sequence (P10144 whole entry): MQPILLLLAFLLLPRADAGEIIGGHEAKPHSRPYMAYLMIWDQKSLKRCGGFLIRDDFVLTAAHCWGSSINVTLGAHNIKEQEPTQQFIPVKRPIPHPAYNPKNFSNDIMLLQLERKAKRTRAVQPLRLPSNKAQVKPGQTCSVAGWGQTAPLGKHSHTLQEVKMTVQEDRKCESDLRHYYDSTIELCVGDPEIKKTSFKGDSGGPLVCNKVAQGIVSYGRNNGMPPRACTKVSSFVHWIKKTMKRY

| Structure (SMILES) | Ki (Granzyme B [1]) [nM] | other results |
| --- | --- | --- |
| CC[C@H](C)[C@H](NC(=O)Cc1ccccc1)C(=O)N[C@H]1CCc2cccc3c2N(C1=O)[C@H](C(=O)NCc1cn[nH]c1)C3 | 13 | Ki [2]: 6.3 nM |
| CC[C@H](C)[C@H](NC(=O)Cc1csc2ccccc12)C(=O)N[C@H]1CCc2cccc3c2N(C1=O)[C@H](C(=O)NCc1cn[nH]c1)C3 | 7 | Ki [2]: 3.1 nM |
| CC[C@H](C)[C@@H](C(=O)N[C@H]1CCc2cccc3c2N(C1=O)[C@H](C(=O)NCc1cc(=O)[nH]o1)C3)N(C)C(C)=O | 360 |  |
| CC[C@H](C)[C@@H](C(=O)N[C@H]1CCc2cccc3c2N(C1=O)[C@H](C(=O)N[C@@H](CC(=O)O)C(=O)c1nnc(-c2ccccc2)o1)C3)N(C)C(C)=O | 7 |  |
| CC[C@H](C)[C@@H](C(=O)N[C@H]1CCc2cccc3c2N(C1=O)[C@H](C(=O)N[C@@H](CC(=O)O)C(=O)c1nc2ccccc2s1)C3)N(C)C(C)=O | 85 |  |
| CC[C@H](C)[C@@H](C(=O)N[C@H]1CCc2cccc3c2N(C1=O)[C@H](C(=O)N[C@@H](CC(=O)O)C(=O)CSCc1ccc(F)cc1)C3)N(C)C(C)=O | 2300 |  |
| CC[C@H](C)[C@@H](C(=O)N[C@H]1CCc2cccc3c2N(C1=O)[C@H](C(=O)NCc1cn[nH]c1)C3)N(C)C(C)=O |  | Ki (Granzyme B [3]): Not Active |
| CC[C@H](C)[C@H](NC(C)=O)C(=O)NCC(=O)N1CCC[C@H]1C(=O)N[C@H](C=O)CC(=O)O (Ac-IGPD-aldehyde) | 270 |  |
| CC[C@H](C)[C@@H](C(=O)N[C@H]1CCc2cccc3c2N(C1=O)[C@H](C(=O)NCc1cn[nH]n1)C3)N(C)C(C)=O | 38 | Ki [2]: 30 nM |
| CC[C@H](C)[C@H](NC(C)=O)C(=O)N[C@@H](CCC(=O)O)C(=O)N1CCC[C@H]1C(=O)N[C@H](C=O)CC(=O)O (Ac-IEPD-aldehyde) | 80 |  |
| CC[C@H](C)[C@@H](C(=O)N[C@H]1CCc2cccc3c2N(C1=O)[C@H](C(=O)NCc1nnn[nH]1)C3)N(C)C(C)=O | 74 |  |
| CC(C)[C@@H](C(=O)N[C@H]1CCc2cccc3c2N(C1=O)[C@H](C(=O)NCc1cn[nH]n1)C3)c1ccccn1 | 75 | Ki [2]: 30 nM |
| CC[C@H](C)[C@@H](C(=O)N[C@H]1CCc2cccc3c2N(C1=O)[C@H](C(=O)NCc1cc[nH]n1)C3)N(C)C(C)=O |  | Ki (Granzyme B [3]): Not Active |
| CC[C@H](C)[C@@H](C(=O)N[C@H]1CCc2cccc3c2N(C1=O)[C@H](C(=O)NCc1nc[nH]n1)C3)N(C)C(C)=O |  | Ki (Granzyme B [3]): Not Active |
| CC[C@H](C)[C@@H](C(=O)N[C@H]1CCc2cccc3c2N(C1=O)[C@H](C(=O)N[C@@H](CC(=O)O)C(=O)C(=O)OC)C3)N(C)C(C)=O | 16 |  |
| CC[C@H](C)[C@H](NC(C)=O)C(=O)Nc1cccn(CC(=O)N[C@H](C=O)CC(=O)O)c1=O | 133 |  |
| CC[C@H](C)[C@H](NC(C)=O)C(=O)NCC(=O)N1c2ccccc2C[C@H]1C(=O)N[C@H](C=O)CC(=O)O | 13 |  |
| CC[C@H](C)[C@H](NC(C)=O)C(=O)N[C@H]1CC[C@H]2CC[C@@H](C(=O)N[C@H](C=O)CC(=O)O)N2C1=O | 122 |  |
| CC[C@H](C)[C@@H](C(=O)N[C@H]1CCc2cccc3c2N(C1=O)[C@H](C(=O)NCCC(=O)O)C3)N(C)C(C)=O | 580 | inhibition (Caspase-3 (Homo sapiens)): < 50% |
